According to article PMC12951562, “SH2scan: Mapping SH2 Domain-Ligand Binding Selectivity for Inhibitors and Degraders” (Journal of Medicinal Chemistry, 2026):
Changes are numbered by the printed parent chain. Read-outs that look alike come from different tables or passages of the source. Non-standard residues stand in square brackets, D forms with d. Residues, ends and D or L forms follow the SMILES beside them. *: point of attachment. pY = N[C@@H](Cc1ccc(OP(=O)(O)O)cc1)C(=O)O; Caffeoyl = O=C(/C=C/c1ccc(O)c(O)c1)*

Assays:
Assay in all cases: biochemical
Type in all cases: binding
[1] = target: T1, SOCS7 (Homo sapiens, UniProt O14512); conditions: for remaining activity at 10 µM: read-out: percent of DMSO vehicle control
T1 construct: made in house; host or cells: HEK293 (transient transfection), unpurified extract
T1 sequence (O14512 1-581): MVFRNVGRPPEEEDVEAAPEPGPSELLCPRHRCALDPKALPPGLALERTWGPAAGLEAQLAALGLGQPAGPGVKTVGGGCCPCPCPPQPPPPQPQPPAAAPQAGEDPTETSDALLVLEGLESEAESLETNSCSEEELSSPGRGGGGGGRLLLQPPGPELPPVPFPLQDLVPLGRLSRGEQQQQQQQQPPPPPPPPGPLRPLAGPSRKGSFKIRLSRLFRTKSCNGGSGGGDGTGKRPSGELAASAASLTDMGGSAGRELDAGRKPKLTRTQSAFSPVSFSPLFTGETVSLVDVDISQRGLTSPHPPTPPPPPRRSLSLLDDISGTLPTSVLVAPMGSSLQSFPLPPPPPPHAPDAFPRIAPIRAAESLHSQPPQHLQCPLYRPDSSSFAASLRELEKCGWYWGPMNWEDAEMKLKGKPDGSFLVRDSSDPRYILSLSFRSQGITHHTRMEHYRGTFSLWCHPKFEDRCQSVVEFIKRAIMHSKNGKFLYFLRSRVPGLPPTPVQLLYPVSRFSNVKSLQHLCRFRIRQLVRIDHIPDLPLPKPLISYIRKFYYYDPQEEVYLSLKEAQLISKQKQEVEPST

[2] = target: T2, SLP76 (Homo sapiens, UniProt Q13094); conditions: for remaining activity at 10 µM: read-out: percent of DMSO vehicle control
T2 construct: made in house; host or cells: HEK293 (transient transfection), unpurified extract
T2 sequence (Q13094 1-533): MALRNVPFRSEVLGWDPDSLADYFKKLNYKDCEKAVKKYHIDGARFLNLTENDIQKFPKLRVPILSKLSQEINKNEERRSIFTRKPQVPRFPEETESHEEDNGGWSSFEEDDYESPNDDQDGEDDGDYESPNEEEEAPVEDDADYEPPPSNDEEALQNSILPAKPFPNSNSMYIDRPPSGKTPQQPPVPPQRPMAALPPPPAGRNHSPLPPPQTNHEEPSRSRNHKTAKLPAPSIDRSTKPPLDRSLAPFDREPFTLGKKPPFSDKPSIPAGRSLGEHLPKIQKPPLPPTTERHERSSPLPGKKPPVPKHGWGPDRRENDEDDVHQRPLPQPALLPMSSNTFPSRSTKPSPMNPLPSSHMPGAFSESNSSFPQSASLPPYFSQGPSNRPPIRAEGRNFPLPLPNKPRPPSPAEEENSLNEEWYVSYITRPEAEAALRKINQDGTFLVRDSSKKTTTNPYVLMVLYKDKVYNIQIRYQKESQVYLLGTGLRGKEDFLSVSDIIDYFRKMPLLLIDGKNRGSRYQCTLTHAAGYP

[3] = target: T3, SH2B (SH2B1) (Homo sapiens, UniProt Q9NRF2); conditions: for remaining activity at 10 µM: read-out: percent of DMSO vehicle control
T3 construct: made in house; host or cells: HEK293 (transient transfection), unpurified extract

[4] = target: T4, ABL2 (Homo sapiens, UniProt P42684); conditions: for remaining activity at 10 µM / percent of DMSO vehicle control at 10 µM: read-out: percent of DMSO vehicle control
T4 construct: the DNA-tagged SH2 domain concentrations used in this study were <0.1 nM; made in house; host or cells: HEK293 (transient transfection; unpurified extract)
T4 sequence (P42684 173-263 limits assumed): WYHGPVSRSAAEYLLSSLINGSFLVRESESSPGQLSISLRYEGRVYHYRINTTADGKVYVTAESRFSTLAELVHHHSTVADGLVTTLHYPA

[5] = target: T5, ABL1 (Homo sapiens, UniProt P00519); conditions: for remaining activity at 10 µM / percent of DMSO control binding at 10 µM: read-out: percent of DMSO vehicle control; for KD: dose-response
T5 construct: the DNA-tagged SH2 domain concentrations used in this study were <0.1 nM; made in house; host or cells: HEK293 (transient transfection; unpurified extract)
T5 sequence (P00519 127-217 limits assumed): T4 sequence (P42684 173-263 limits assumed) with S9N, L18G, L35R, T53A, A54S, V58L, T61S, A62S, S67N, V84I

[6] = target: T6, NCK1 (Homo sapiens, UniProt P16333); conditions: for remaining activity at 10 µM: read-out: percent of DMSO vehicle control
T6 construct: the DNA-tagged SH2 domain concentrations used in this study were <0.1 nM; made in house; host or cells: HEK293 (transient transfection, unpurified extract)

[7] = target: T7, GRAP (Homo sapiens, UniProt Q13588); conditions: for remaining activity at 10 µM / percent of DMSO vehicle control at 10 µM: read-out: percent of DMSO vehicle control
T7 construct: the DNA-tagged SH2 domain concentrations used in this study were <0.1 nM; made in house; host or cells: HEK293 (transient transfection; unpurified extract)
T7 sequence (Q13588 60-154 limits assumed): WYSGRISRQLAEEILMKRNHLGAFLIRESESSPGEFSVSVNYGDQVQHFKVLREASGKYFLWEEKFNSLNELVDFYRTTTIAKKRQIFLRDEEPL

[8] = target: T8, HCK (Homo sapiens, UniProt P08631); conditions: for remaining activity at 10 µM: read-out: percent of DMSO vehicle control
T8 construct: the DNA-tagged SH2 domain concentrations used in this study were <0.1 nM; made in house; host or cells: HEK293 (transient transfection, unpurified extract)
T8 sequence (P08631 144-241 limits assumed): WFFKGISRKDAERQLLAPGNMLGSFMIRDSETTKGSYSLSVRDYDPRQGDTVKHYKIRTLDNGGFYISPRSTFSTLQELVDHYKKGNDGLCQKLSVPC

[9] = target: T9, SOCS6 (Homo sapiens, UniProt O14544); conditions: for remaining activity at 10 µM: read-out: percent of DMSO vehicle control
T9 construct: made in house; host or cells: HEK293 (transient transfection), unpurified extract
T9 sequence (O14544 1-535): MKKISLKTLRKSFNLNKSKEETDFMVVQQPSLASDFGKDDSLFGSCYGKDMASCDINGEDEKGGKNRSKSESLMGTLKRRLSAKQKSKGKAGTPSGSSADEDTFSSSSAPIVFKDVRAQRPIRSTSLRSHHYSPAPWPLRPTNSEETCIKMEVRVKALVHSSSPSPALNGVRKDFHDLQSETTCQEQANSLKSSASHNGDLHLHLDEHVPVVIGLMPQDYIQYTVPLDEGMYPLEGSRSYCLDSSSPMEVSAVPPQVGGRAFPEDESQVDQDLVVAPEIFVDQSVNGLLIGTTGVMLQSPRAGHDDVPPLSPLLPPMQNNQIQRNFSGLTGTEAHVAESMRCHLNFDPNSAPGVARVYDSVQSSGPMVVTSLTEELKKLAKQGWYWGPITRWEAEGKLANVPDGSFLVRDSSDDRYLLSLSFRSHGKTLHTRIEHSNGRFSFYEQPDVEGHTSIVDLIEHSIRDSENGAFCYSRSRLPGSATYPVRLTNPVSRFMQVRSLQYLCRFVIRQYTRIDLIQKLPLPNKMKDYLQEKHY

Row | SMILES | remaining activity at 10 µM ([1]; primary screen, 10 μM) [%] | remaining activity at 10 µM ([2]; primary screen, 10 μM) [%] | remaining activity at 10 µM ([3]; primary screen, 10 μM) [%] | remaining activity at 10 µM ([4]; primary screen, 10 μM) [%] | remaining activity at 10 µM ([5]; primary screen, 10 μM) [%] | remaining activity at 10 µM ([6]; primary screen, 10 μM) [%] | remaining activity at 10 µM ([7]; primary screen, 10 μM) [%] | remaining activity at 10 µM ([8]; primary screen, 10 μM) [%] | remaining activity at 10 µM ([9]; primary screen, 10 μM) [%] | remaining activity at 10 µM [1] [%] | remaining activity at 10 µM [2] [%] | remaining activity at 10 µM [3] [%] | percent of DMSO vehicle control at 10 µM [4] [%] | percent of DMSO control binding at 10 µM [5] [%] | remaining activity at 10 µM [6] [%] | percent of DMSO vehicle control at 10 µM [7] [%] | remaining activity at 10 µM [8] [%] | remaining activity at 10 µM [9] [%] | KD [5] | further results
1 | O=C(CCl)Nc1cccc(CNC(=O)[C@H](Cc2ccc(OP(=O)(O)O)cc2)NC(=O)Cc2ccc(F)cc2)c1 [MN551] | 21.9 ± 5 | 116 | 105 | 94.6 ± 1.6 | 35.7 ± 4.3 | 67.4 ± 5.3 | 48.7 | 92.7 | 65.2 ± 0.1 | – | – | – | – | – | – | – | – | – | – | Kd ([1]; dose-response, read-out: KD): 8100 nM
2 | CC[C@H](C)[C@H](NC(=O)[C@H](CCC(=O)O)NC(=O)[C@H](CCC(=O)O)NC(=O)[C@H](Cc1ccc(OP(=O)(O)O)cc1)NC(C)=O)C(=O)N[C@@H](CCC(=O)O)C(N)=O [Ac-pYEEIE-NH2] (Ac-[pY]EEIE-NH2) | – | – | – | – | – | – | – | – | – | – | – | – | – | – | – | – | – | – | – | percent of DMSO vehicle control ([1]; primary screen, 10 μM): 110.9%; percent of DMSO vehicle control ([2]; primary screen, 10 μM): 42.0±2.1%; percent of DMSO vehicle control ([3]; primary screen, 10 μM): 126.6%; percent of DMSO vehicle control ([4]; primary screen, 10 μM): 110.7%; percent of DMSO vehicle control ([5]; primary screen, 10 μM): 106.1%; percent of DMSO vehicle control ([6]; primary screen, 10 μM): 90.1%; percent of DMSO vehicle control ([7]; primary screen, 10 μM): 112.9%; percent of DMSO vehicle control ([8]; primary screen, 10 μM): 82.2%; percent of DMSO vehicle control ([9]; primary screen, 10 μM): 95.6±6.2%
3 | CC(=O)N1CC[C@H]2CC[C@@H](C(=O)N[C@@H](CCC(N)=O)C(=O)NC(c3ccccc3)c3ccccc3)N2C(=O)[C@@H](NC(=O)c2cc3cc(C(F)(F)P(=O)(O)O)ccc3[nH]2)C1 [SI-109] | – | – | – | – | – | – | – | – | – | 124 | 61.9 | 149 | 122 | 132 | 124 | 141 | 91.9 | 91.9 ± 7.4 | – | –
4 | CC(=O)N[C@@H](Cc1ccc(CP(=O)(O)O)cc1)C(=O)NC1(C(=O)N[C@@H](CC(N)=O)C(=O)NCCCc2c(O)ccc3ccccc23)CCCCC1 [CGP78850] | – | – | – | – | – | – | – | – | – | 126 ± 4.2 | 44.1 ± 5.3 | 125 ± 1.9 | 6.2 ± 0.1 | 3.1 ± 1.7 | 104 ± 4.8 | 0 | 60 ± 12.1 | 63.3 ± 5.3 | – | Kd [4]: 1100 ± 120 nM; Kd [5]: 560 ± 360 nM; Kd [7]: 3.3 nM
5 | CC[C@H](C)[C@H](NC(=O)[C@H](CCC(=O)O)NC(=O)[C@H](CCC(=O)O)NC(=O)[C@H](Cc1ccc(OP(=O)(O)O)cc1)NC(=O)/C=C/c1ccc(O)c(O)c1)C(=O)N[C@@H](CCC(=O)O)C(=O)O [Caffeic acid-pYEEIE] (Caffeoyl-[pY]EEIE-OH) | – | – | – | – | – | – | – | – | – | 0.5 ± 0.4 | 99.6 ± 4.7 | 2.3 ± 0.4 | 0.7 ± 0.4 | 0 | 0.8 ± 0.1 | 109.9 ± 0.3 | 0 | 8.2 ± 0.1 | – | Kd [1]: 280 ± 140 nM; Kd [3]: 910 ± 310 nM; Kd [4]: 1400 ± 360 nM; Kd [5]: 105 ± 17 nM; Kd [6]: 97 ± 71 nM; Kd [8]: 6 ± 0.97 nM; Kd [9]: 1900 ± 240 nM
6 | NC(=O)CC[C@H](NC(=O)[C@@H]1CC[C@@H]2CCN(C(=O)CCCCCC#Cc3cccc4c3CN(C3CCC(=O)NC3=O)C4=O)C[C@H](NC(=O)c3cc4cc(C(F)(F)P(=O)(O)O)ccc4[nH]3)C(=O)N21)C(=O)NC(c1ccccc1)c1ccccc1 (stereo partly shown) [SD-36] | – | – | – | – | – | – | – | – | – | 271 | 66.5 ± 0.8 | 68.4 ± 0.4 | 126 | 87.4 ± 24 | 106 | 89.2 ± 4.6 | 56.4 ± 3.2 | 57.2 ± 3.4 | – | –
7 | CC(C)(C)[C@H](NC(=O)/C=C/c1ccc(OP(=O)(O)O)cc1)C(=O)N1CCC[C@H]1C(=O)N(c1ccccc1)c1ccc(I)cc1 [STAT6-IN-3] | 50.9 ± 16.4 | 93.6 ± 30.3 | 78.1 ± 4.8 | 108 ± 3.5 | 0 | 85.1 ± 10.2 | 73.5 ± 23.6 | 77.4 ± 4.3 | 90.2 ± 12.1 | – | – | – | – | – | – | – | – | – | No Hit | –
8 | C/C(=C\C(=O)N[C@H](C(=O)N1CCC[C@H]1C(=O)N(c1ccccc1)c1ccc(I)cc1)C(C)(C)C)c1ccc(OP(=O)(O)O)cc1 [STAT6-IN-1] | 34.6 ± 0.1 | 50.8 ± 0.4 | 22.6 ± 6.8 | 98.1 ± 4.2 | 0 | 10.6 ± 2.6 | 52 ± 15.9 | 48.8 ± 5.2 | 44.1 ± 2.1 | – | – | – | – | – | – | – | – | – | No Hit | KD ([1]; dose-response): No Hit; KD ([6]; dose-response): No Hit
9 | O=C(COc1ccc2cc(C(=O)Nc3ccccc3)ccc2c1)NCc1ccc(OP(=O)(O)O)c(OP(=O)(O)O)c1 [Stafib-1] | 81 ± 17.8 | 97.5 ± 31 | 92.7 ± 14.3 | 106 | 19.9 | 53.7 ± 39.3 | 76.2 ± 27 | 77 ± 19.3 | 96.9 ± 12 | – | – | – | – | – | – | – | – | – | No Hit | –
